Reference: patent publication US20250051403A1, “ANTIMICROBIAL PEPTIDES, VARIANTS AND CHEMICAL ANALOGUES THEREOF AND THEIR USES” (priority 2021, published 2025)
Read-outs that look alike come from different tables or passages of the source. Positions of bridges follow the written chain, without caps; N, C: chain ends. Residues, ends and D or L forms follow the SMILES beside them.

Tests used:
P. aeruginosa [1] = assay: Serial passage/resistance assay; format: cell-based, Pseudomonas aeruginosa; conditions: continuous exposure to sub-lethal doses, 30 days
[2] = test system: Bacillus subtilis (ATCC 6633); assay: MIC, broth microdilution; format: cell-based; conditions: Table IV, strain description
Method: To standardize the bacterial cell suspension for assay of antibacterial activity, some colonies of each strain grown overnight on MHA (Mueller Hinton Agar. ROTH) plates were suspended in MHB (Mueller Hinton Broth. ROTH) or MHB saline (Mueller Hinton Broth containing 565 mM NaCl) and incubated at 37° C. or 30° C. until visible turbid. This log-phase inoculum was diluted 1:100 in the same culture media. Using sterile 96-well microtiter plates (CELLSTAR. Greiner bio-one), serial 2-fold dilutions (40 to 0.78 μM) of each peptide were prepared in cation-adjusted acetic acid 0.02% with 0.4% BSA (Bovin Serum Albumin fraction V. Boehringer) at a volume of 10 μL/well. Each well was inoculated with 100 μL of the standardized bacterial inoculum, corresponding to a final test concentration of about 10^5 CFU/mL. Antimicrobial activities were expressed as the MIC (Minimal Inhibitory Concentration), the lowest concentration of peptide at which 100% inhibition of microbial growth was observed after 24 h of incubation at 37° C. or 30° C. by measuring OD600 in a microtiter plate reader. The minimal bactericidal concentration (MBC) was defined as the peptide concentration where no colony growth was observed.
The same experiments as described in 1) were performed. For the evaluation of antimicrobial activity against some other strains, a resazurin microtiter assay was used as explained hereinafter.

[3] = test system: B. subtilis nisin resistant (DSMZ 347); conditions: Table IV, strain description
human erythrocytes = assay: Haemolytic assay; format: cell-based
Method: The hemolytic activity of the peptides was determined using fresh human erythrocytes from healthy donors. Blood was centrifuged and the erythrocytes were washed three times with a phosphate-buffered saline (PBS: 35 mM phosphate buffer/150 mM NaCl, pH 7.4). […] Samples were incubated at 37° C. for 60 min. After incubating the mixtures were centrifuged at 1,500 rpm for 10 min. The release of hemoglobin was monitored by measuring the absorbance (Abs) of the supernatant at 405 nm. Hemolytic rates of 0 and 100% were determined in PBS and 0.1% Triton X-100, respectively. The percentage of hemolysis was calculated by employing the following equation: Percentage hemolysis=[([…])/(Abs405 nm in 0.1% Triton X-100−Abs405 nm in PBS)]×100.

P. aeruginosa [4] = test system: P. aeruginosa
[5] = test system: human lung fibroblasts (IMR90 cells (ATCC CCL-186)); assay: Cytotoxicity; format: cell-based; conditions: even at doses>80 μM
[6] = test system: Mycobacterium tuberculosis mc^26230
[7] = Cytotoxicity, resazurin cell viability; format: cell-based, human; conditions: human, 80 μM, 48 h
Method: (§1) The toxicity of Michelicin on human cells was tested as previously described (Borie et al., 2017; Oyama et al., 2017). Briefly, human cells were cultured in Dulbecco's modified essential medium (DMEM) supplemented with 10% fetal calf serum (FCS), 1% L-glutamine and 1% antibiotics (all from Invitrogen). Cells were routinely grown in onto 25 cm^2 flasks maintained in a 5% CO2 incubator at 37° C. For toxicity assay, cells grown on 25 cm^2 flasks were detached using trypsin-EDTA solution (Thermofisher) and seeded into 96-well cell culture plates (Greiner Bio-one) at approximately 10^4 cells per well (counted using Mallasez's chamber). The cells were grown at 37° C. in a 5% CO2 incubator until they reached confluence (approximately 48-72 h of seeding). Wells were then aspirated and increasing concentrations of AMP were added to the cells and incubated for a further 48 h at 37° C. in a 5% CO2 incubator. The wells were then emptied, and cell viability was evaluated using resazurin based in vitro toxicity assay kit (Sigma-Aldrich) following manufacturer's instructions. Briefly, resazurin stock solution was diluted 1:100 in sterile PBS containing calcium and magnesium (PBS++, pH 7.4) and emptied wells were filled with 100 μL of the resazurin diluted solution. After 4 h incubation at 37° C. with the peptide treated cells, fluorescence intensity was measured using microplate reader (SynerMix, Bioteck) (excitation wavelength of 530 nm/emission wavelength of 590 nm). The fluorescence values were normalized by the controls and expressed as percentage of cell viability. The IC50 values of tested AMP on cell viability (i.e. the concentration of peptides causing a reduction of 50% of the cell viability) were calculated using GraphPad® Prism 7 software. Two cell lines were tested: Human Bronchial Epithelial Cell Line (BEAS; ATCC CRL-9609) and Human umbilical vein endothelial cell (HUVEC).

[8] = test system: Human umbilical vein endothelial cell (HUVEC); assay: Cytotoxicity, resazurin cell viability; format: cell-based; conditions: even at doses>80 μM
Method: as §1

[9] = test system: Human Bronchial Epithelial Cell Line (BEAS; ATCC CRL-9609); assay: Cytotoxicity, resazurin cell viability; format: cell-based; conditions: even at doses>80 μM
Method: as §1

P. aeruginosa [10] = assay: Membrane permeabilization assay (propidium iodide); format: cell-based, Pseudomonas aeruginosa; conditions: 2.5 min of incubation, 37° C., 3 times their MIC; CTAB at 300 μM
Method: Several tests were performed to determine the mechanism of the antimicrobial activity of the peptides of the invention. Most of the cationic AMP can increase the permeability of the bacterial membrane through pore-forming activity. We evaluated the ability of Michelicin to cause pore-formation using P. aeruginosa as model bacteria. Permeabilization of the bacterial membrane by Michelicin was evaluated using the cell-impermeable DNA probe propidium iodide (PI) (Di Pasquale et al., 2010; Oyama et al., 2017). PI can interact with DNA/RNA, leading to increase in fluorescence of the molecule. The bacterial membrane is impermeable to PI preventing its interaction with intracellular DNA/RNA. Thus, fluorescence of PI (expressed as RFU: relative fluorescence unit) only increases if membrane integrity is compromised through pore-formation. We measured the time-dependent effect of our peptide and other molecules on PI fluorescence at 37° C., all molecules being tested at 3 times their MIC. […] Kinetics of fluorescence variations (excitation at 530 nm/emission at 590 nm) were recorded using a microplate reader (SynergyMx, Bioteck) over 80 min period at 37° C. […] The permeabilization effect of the tested compound (i.e., Michelicin, Alvinellacin, Arenicin, and control, PMB or CTAB) was expressed as percentage of total permeabilization caused by CTAB.

Molecule: CO/N=C1\CN(c2nc3c(cc2F)c(=O)c(C(=O)O)cn3C2CC2)CC1CN (stereo not drawn) [Gemifloxacin]
- Resistance induction / fold increase in initial MIC (in words) (P. aeruginosa [1]): relevant

Molecule: Nisin
- MIC Nisin [2]: (MIC Nisin < 0.09 μg/mL)
- MIC Nisin [3]: MIC (Nisin 3 μg/mL)

Molecule: CC[C@H](C)[C@@H]1NC(=O)[C@H](CCCNC(=N)N)NC(=O)[C@H](C(C)C)NC(=O)[C@@H](NC(=O)[C@@H](NC(=O)[C@@H](N)CCCNC(=N)N)C(C)C)CSSC[C@@H](C(=O)N[C@@H](Cc2c[nH]c3ccccc23)C(=O)N[C@@H](CC(N)=O)C(=O)N[C@H](C(=O)O)[C@@H](C)O)NC(=O)[C@H](CCCNC(=N)N)NC(=O)[C@H](CCCNC(=N)N)NC(=O)[C@H](Cc2ccc(O)cc2)NC(=O)[C@@H]2CSSC[C@H](NC1=O)C(=O)N[C@@H](CCCNC(=N)N)C(=O)N[C@@H](CC(N)=O)C(=O)NCC(=O)N[C@@H](CCCNC(=N)N)C(=O)N2 [Michelicin, RVC1VRIC2RNGRC3YRRC4WNT] (H-RVCVRICRNGRCYRRCWNT-OH; disulfide 3-16, 7-12)
- Effect on hemolysis (human erythrocytes; 1.2 to 40 μM, 60 min at 37° C., FIG. 2): far less than the effect of Arenicin
- Hemolytic activity (human erythrocytes; even at doses>80 μM): not observed
- MIC with 565 mM NaCl (Vibrio alginolyticus): 0.62 to 1.25 µM
- V. alginolyticus MIC (Vibrio alginolyticus): 1.25 to 2.5 µM
- MIC (Vibrio alginolyticus; 24 h): 0.07 to 0.15 µM
- P. aeruginosa MIC (P. aeruginosa [4]): 2.5 to 5 µM
- Cytotoxic activity towards IMR90 cells [5]: not observed
- M. tuberculosis mc^26230 MIC [6]: 12.3 to 13.0 µM
- MIC [6]: 12.3 to 13.0 µM
- M. smegmatis mc^2155 MIC (M. smegmatis mc^2155): 0.57 to 2.15 µM
- viability at 48 h, 80 µM ([7]; BEAS human bronchial epithelial cells (ATCC CRL-9609), read-out: % of viability, BEAS cells): 100%
- viability at 48 h, 80 µM ([7]; HUVEC (human umbilical vein endothelial cells), read-out: % of viability, HUVEC cells): 95%
- Cytotoxic activity towards HUVEC cells [8]: not observed
- Cytotoxic activity towards BEAS cells [9]: not observed

Molecule: polymyxin B [PMB]
- Permeabilization (percentage of total permeabilization caused by CTAB) (P. aeruginosa [10]): 2-5%
